# Read-outs that look alike come from different tables or passages of the source. Marks after values point to notes of the source that are not given here.
# Columns and labels:
# CYP 2C9 = biological target: T1, CYP 2C9 (Homo sapiens, UniProt P11712); assay: CYP450 inhibition assay, CYP 2C9; format: in vitro ADME; design: dose or concentration left out as unconfirmed; details: CYP baculosomes with recombinant human CYP2C9, probe fluorogenic substrate (not named); human recombinant enzymes; read-out: Mean % inhibtion CYP 2C9
# T1 construct: purchased; host or cells: baculosomes (insect-cell microsomes; own knowledge)
# Description: (§1) The compounds originally dissolved in DMSO were added to PBS to give a resulting concentration of […]. CYP baculosomes containing cDNA for a single human P450 isozyme, the fluorogenic substrate and the NADPH were added to the test solution. The reaction was incubated at 37°C for at least 1 h. Fluorogenic substrates metabolized by CYP enzymes result in highly fluorescent products in aqueous solution. The inhibition of CYP prevents this metabolism, which corresponds to a decrease in the fluorescence signal. The fluorescence was measured on a plate reader.
# CYP 2C19 = biological target: T2, CYP 2C19 (Homo sapiens, UniProt P33261); assay: CYP450 inhibition assay, CYP 2C19; format: in vitro ADME; design: dose or concentration left out as unconfirmed; details: CYP baculosomes with recombinant human CYP2C19, probe fluorogenic substrate (not named); human recombinant enzymes; read-out: Mean % inhibtion CYP 2C19
# T2 construct: purchased; host or cells: baculosomes (insect-cell microsomes; own knowledge)
# Description: as §1
# CYP 2D6 = biological target: T3, CYP 2D6 (Homo sapiens, UniProt P10635); assay: CYP450 inhibition assay, CYP 2D6; format: in vitro ADME; design: dose or concentration left out as unconfirmed; details: CYP baculosomes with recombinant human CYP2D6, probe fluorogenic substrate (not named); human recombinant enzymes; read-out: Mean % inhibtion CYP 2D6
# T3 construct: purchased; host or cells: baculosomes (insect-cell microsomes; own knowledge)
# Description: as §1
# CYP 1A2 = biological target: T4, CYP 1A2 (Homo sapiens, UniProt P05177); assay: CYP450 inhibition assay, CYP 1A2; format: in vitro ADME; design: dose or concentration left out as unconfirmed; details: CYP baculosomes with recombinant human CYP1A2, probe fluorogenic substrate (not named); human recombinant enzymes; read-out: Mean % inhibtion CYP 1A2
# T4 construct: purchased; host or cells: baculosomes (insect-cell microsomes; own knowledge)
# T4 sequence (P05177 1-516): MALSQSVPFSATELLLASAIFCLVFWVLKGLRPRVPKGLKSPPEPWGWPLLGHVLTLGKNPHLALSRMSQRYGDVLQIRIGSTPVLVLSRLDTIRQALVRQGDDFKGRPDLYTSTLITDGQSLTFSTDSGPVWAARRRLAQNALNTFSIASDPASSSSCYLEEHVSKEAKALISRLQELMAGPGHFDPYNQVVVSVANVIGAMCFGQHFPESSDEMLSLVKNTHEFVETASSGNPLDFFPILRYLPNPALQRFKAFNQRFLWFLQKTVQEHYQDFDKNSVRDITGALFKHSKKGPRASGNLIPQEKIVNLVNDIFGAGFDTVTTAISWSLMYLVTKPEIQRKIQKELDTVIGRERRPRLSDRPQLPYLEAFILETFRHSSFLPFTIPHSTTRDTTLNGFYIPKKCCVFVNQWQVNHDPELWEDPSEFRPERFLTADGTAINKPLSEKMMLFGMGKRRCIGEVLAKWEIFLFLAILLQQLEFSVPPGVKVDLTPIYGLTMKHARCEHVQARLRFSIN
# Description: as §1
# CYP 3A4 = biological target: T5, CYP 3A4 (Homo sapiens, UniProt P08684); assay: CYP450 inhibition assay, CYP 3A4; format: in vitro ADME; design: dose or concentration left out as unconfirmed; details: CYP baculosomes with recombinant human CYP3A4, probe fluorogenic substrate (not named); human recombinant enzymes; read-out: Mean % inhibtion CYP 3A4
# T5 construct: purchased; host or cells: baculosomes (insect-cell microsomes; own knowledge)
# Description: as §1
# [1] = Aqueous kinetic solubility; format: physicochemical; details: aqueous with cosolvent or surfactant or cyclodextrin, kinetic from dmso stock, 5% DMSO in PBS, 21°C
# Description: The compounds were equilibrated in 5% DMSO in PBS at 21°C for 24 h. The samples were then centrifuged at 15000 g for 10 min. A 100 μL sample of the supernatant was carefully collected and the soluble amount of compound quantified using LC-MS/MS. A standard curve for each compound was prepared in 100% acetonitrile. Solubility results are reported as low (<0.1 mg/mL), medium (0.1–0.5 mg/mL) and high (>0.5 mg/mL).
# M. bovis BCG Pasteur = assay: microbe, parasite or virus in culture; format: cell-based; details: Mycobacterium tuberculosis variant bovis BCG, BCG
# [2] = Human hepatocyte stability assay; format: in vitro ADME; design: half-life / hepatocyte CLint: dose or concentration left out as unconfirmed
# Description: The compounds originally dissolved in DMSO were added to PBS to give a resulting concentration of 1 mM. Hepatocytes were then added to the solution and the reaction was incubated at 37°C for up to 120 min. Acetonitrile with internal standard was added to stop the incubation. The samples were centrifuged and the supernatant was then analysed by HPLC-MS/MS to detect the parent compound.
# [3] = Human microsome stability assay; format: in vitro ADME; design: half-life: dose or concentration left out as unconfirmed; details: for Mean % microsome turnover / Mean compound remaining / Microsomal stability: human liver microsomes
# Description: Microsomes and NADPH were then added to the solution and the reaction was incubated at 37°C for up to 60 min. Acetonitrile (300 μL) with internal standard was added to stop the incubation. The samples were centrifuged and the supernatant was then analysed by HPLC-MS/MS to detect the parent compound.
# [4] = biological target: MurE (Rv2158c) protein of M. tuberculosis H37Rv (Mycobacterium tuberculosis, UniProt P9WJL3); assay: Mtb-MurE HPLC inhibition assay; format: biochemical; details: for IC50: HPLC assay, 37°C 30 min
# MDR-1 = assay: MDCK cell permeability assay; format: in vitro ADME, canine; details: dog, MDCK-MDR1, MDCK MDR-1 monolayer, 10 μM, 30 min
# [5] = system: MDCK cells carrying the MDR-1 gene; assay: MDCK cell permeability assay; format: in vitro ADME, canine; details: MDCK MDR-1 monolayer, 10 μM, 30 min, apical to basolateral
# [6] = MDCK cell permeability assay; format: in vitro ADME, canine; details: dog, MDCK-MDR1; MDCK MDR-1 monolayer, class
# P-glycoprotein = P-glycoprotein (Homo sapiens, UniProt P08183); assay: in vitro; details: dog, MDCK-MDR1
# Description: All dose solutions contained 10 μM propranolol as an internal standard. MDCK cells carrying the MDR-1 gene were used to seed filters that were exposed to a fixed volume of the donor solution containing the compound of interest. The compound's ability to traverse the monolayer and appear in the receiver compartment was measured over a 30 min period. Bidirectional permeability measurements were derived by examining the transfer of compound from both the apical to the basolateral compartment and vice versa. Sample analysis was conducted using LC-MS/MS with the detection settings optimized for each test compound.
# [7] = system: murine macrophage cell line RAW264.7; assay: Eukaryotic cell toxicity assay, RAW264.7; format: cell-based; details: Mus musculus, read-out: GIC50 RAW264.7
# M. tuberculosis H37Rv = assay: SPOTi growth inhibition assay, M. tuberculosis H37Rv; format: cell-based; details: Mycobacterium tuberculosis, H37RV, SPOTi, read-out: MIC M. tuberculosis H37Rv
# [8] = system: murine macrophage cell line RAW264.7; design: method as in Gupta and Bhakta.[27]; details: ref Gupta and Bhakta.[27]; cited from earlier work
# M. bovis BCG = format: cell-based; details: M. bovis BCG treated at 4 × MIC for 48 h (D-cycloserine 100 mg/L, 39 160 mg/L); 100 cells
# [9] = 336 h, read-out: MIC M. bovis BCG, SPOTi, 2 weeks at 37°C
# [10] = read-out: MIC M. bovis BCG, SPOTi, value in square brackets
# Chain of MurE (Rv2158c) protein of M. tuberculosis H37Rv (P9WJL3 whole entry, looked up): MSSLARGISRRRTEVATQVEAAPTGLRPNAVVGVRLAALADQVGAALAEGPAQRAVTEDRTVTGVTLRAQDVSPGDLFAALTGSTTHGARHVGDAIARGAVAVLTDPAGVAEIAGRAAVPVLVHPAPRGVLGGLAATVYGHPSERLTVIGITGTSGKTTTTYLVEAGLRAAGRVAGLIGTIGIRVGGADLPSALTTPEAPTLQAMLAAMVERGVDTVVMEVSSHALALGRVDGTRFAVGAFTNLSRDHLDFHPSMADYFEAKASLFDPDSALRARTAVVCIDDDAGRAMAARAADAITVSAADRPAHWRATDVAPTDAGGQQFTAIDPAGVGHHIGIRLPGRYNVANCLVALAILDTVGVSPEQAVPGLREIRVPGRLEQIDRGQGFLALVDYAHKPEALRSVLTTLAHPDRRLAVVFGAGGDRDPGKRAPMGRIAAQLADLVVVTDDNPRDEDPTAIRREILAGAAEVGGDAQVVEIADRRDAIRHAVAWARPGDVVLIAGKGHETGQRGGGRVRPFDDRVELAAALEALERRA
# T2 sequence (P33261 whole entry): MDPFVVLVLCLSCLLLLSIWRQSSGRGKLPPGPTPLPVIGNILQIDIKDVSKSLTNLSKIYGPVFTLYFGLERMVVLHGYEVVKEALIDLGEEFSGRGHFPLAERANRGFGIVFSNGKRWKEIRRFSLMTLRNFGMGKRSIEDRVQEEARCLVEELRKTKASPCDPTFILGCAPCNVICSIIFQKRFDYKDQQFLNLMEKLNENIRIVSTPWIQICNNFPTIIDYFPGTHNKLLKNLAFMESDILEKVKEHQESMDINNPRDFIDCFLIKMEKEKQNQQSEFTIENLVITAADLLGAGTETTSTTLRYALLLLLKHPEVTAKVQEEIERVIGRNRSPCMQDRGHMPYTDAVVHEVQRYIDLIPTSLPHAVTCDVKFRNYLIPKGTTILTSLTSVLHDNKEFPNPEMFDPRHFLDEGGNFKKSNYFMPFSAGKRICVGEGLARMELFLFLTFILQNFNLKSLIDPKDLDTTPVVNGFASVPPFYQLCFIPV
# T1 sequence (P11712 whole entry): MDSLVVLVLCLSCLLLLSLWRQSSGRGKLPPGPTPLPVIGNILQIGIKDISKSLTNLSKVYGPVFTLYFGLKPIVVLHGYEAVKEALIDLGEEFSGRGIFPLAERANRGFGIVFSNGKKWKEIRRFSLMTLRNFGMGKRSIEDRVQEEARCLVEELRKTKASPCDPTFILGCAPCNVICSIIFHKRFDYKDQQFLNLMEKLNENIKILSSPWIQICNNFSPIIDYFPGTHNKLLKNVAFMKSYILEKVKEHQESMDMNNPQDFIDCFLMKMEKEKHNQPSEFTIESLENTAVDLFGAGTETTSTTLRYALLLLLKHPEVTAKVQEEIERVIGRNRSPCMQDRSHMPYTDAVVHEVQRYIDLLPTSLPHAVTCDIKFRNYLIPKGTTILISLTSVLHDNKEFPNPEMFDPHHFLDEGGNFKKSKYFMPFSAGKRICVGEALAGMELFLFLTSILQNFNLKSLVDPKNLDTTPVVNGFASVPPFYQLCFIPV
# T5 sequence (P08684 whole entry): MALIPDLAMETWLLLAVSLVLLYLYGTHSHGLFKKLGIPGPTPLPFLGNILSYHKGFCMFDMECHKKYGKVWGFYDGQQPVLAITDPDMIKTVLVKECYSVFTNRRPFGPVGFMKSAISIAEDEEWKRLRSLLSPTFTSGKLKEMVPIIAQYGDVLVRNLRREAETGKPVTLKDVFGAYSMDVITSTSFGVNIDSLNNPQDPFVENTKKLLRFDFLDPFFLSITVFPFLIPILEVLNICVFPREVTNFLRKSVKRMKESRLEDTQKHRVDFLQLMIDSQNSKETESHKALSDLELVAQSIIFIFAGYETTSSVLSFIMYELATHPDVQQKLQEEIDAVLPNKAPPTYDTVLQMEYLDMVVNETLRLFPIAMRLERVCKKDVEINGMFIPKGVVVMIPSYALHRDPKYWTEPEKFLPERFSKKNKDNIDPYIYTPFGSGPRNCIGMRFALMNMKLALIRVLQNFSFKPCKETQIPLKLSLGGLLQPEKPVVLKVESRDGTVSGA
# T3 sequence (P10635 whole entry): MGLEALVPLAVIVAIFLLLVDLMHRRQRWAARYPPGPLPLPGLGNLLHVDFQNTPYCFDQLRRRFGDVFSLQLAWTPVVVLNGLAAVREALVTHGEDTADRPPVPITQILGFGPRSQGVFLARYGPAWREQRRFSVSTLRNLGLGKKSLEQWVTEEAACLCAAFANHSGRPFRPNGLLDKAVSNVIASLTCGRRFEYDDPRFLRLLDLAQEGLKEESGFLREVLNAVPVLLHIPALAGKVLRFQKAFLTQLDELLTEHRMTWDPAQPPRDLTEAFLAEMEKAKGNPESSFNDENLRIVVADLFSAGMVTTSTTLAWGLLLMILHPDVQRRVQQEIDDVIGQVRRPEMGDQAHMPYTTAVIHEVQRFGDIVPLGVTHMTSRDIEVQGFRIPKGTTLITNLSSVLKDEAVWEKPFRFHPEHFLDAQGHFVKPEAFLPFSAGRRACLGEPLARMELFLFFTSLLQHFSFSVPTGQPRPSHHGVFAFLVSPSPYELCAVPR
# Chain of P-glycoprotein (P08183 whole entry): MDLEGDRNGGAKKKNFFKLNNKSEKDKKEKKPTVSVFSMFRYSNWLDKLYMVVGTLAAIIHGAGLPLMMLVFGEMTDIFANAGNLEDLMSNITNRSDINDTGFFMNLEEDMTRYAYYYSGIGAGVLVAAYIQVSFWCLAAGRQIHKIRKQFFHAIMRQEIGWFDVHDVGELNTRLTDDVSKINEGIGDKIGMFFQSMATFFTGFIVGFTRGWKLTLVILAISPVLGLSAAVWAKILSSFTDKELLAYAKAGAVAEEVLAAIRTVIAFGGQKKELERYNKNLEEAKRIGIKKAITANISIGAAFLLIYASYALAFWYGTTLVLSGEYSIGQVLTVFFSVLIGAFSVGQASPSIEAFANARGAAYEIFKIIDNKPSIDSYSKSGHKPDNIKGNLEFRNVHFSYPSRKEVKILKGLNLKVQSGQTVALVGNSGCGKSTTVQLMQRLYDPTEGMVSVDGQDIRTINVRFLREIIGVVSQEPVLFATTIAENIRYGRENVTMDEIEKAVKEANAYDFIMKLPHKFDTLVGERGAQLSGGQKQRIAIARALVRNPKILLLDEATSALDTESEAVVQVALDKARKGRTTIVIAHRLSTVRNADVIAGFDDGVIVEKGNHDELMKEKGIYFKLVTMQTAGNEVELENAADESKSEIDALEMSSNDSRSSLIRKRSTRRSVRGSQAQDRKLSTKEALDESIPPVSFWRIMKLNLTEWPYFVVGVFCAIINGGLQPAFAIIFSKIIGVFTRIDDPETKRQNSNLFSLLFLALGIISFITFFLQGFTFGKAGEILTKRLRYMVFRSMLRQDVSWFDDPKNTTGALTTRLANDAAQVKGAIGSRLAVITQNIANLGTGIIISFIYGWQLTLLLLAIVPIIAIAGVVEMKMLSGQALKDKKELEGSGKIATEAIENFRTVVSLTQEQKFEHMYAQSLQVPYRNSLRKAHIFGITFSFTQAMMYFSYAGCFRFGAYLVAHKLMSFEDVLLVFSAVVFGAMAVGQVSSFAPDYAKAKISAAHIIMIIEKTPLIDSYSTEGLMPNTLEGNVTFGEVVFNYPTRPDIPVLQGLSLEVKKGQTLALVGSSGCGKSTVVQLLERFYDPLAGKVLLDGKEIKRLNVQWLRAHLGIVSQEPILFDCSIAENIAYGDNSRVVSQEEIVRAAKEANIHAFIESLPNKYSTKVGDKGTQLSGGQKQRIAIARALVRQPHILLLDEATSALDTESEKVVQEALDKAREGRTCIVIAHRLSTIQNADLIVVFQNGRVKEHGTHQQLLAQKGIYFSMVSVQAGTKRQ
smiles,measurement,setting,value
"O=c1cc(-c2ccccc2)oc2c1ccc1ccccc12 [α-naphthoflavone, reference compound]",inhibition,CYP 2C9,101%
same,inhibition,CYP 2C19,100%
same,inhibition,CYP 2D6,99.1%
same,inhibition,CYP 1A2,100%
same,inhibition,CYP 3A4,101%
Oc1ccc(Br)c2c1C(c1cccc3c1OCO3)NCC2 (stereo not shown) [Compound 35],inhibition,CYP 2C9,44.9%
same,solubility kinetic at 24 h,[1],300 µg/mL
same,MIC,M. bovis BCG Pasteur; [9],60 µg/mL
same,MIC,M. bovis BCG Pasteur; [10],172 µM
same,inhibition,CYP 2C19,98.2%
same,hepatic extraction ratio,[2]; hepatocyte stability assay,> 0.6
same,half-life,"[2]; human, hepatocytes, human hepatocytes, read-out: t1/2 hepatocytes",1.31 h
same,hepatocyte CLint,"[2]; human, hepatocytes, in vivo hepatic intrinsic clearance prediction values",12.6 µL/min/1e6 cells
same,Mean % microsome turnover,[3]; 0 min,-5.55e-15%
same,Mean compound remaining,[3]; 0 min,100.00
same,Microsomal stability,[3]; 0 min,4.60
same,Mean % microsome turnover,[3]; 15 min,3.85%
same,Mean compound remaining,[3]; 15 min,96.15
same,Microsomal stability,[3]; 15 min,4.57
same,Mean % microsome turnover,[3]; 30 min,14.54%
same,Mean compound remaining,[3]; 30 min,85.46
same,Microsomal stability,[3]; 30 min,4.45
same,Mean % microsome turnover,[3]; 60 min,30.44%
same,Mean compound remaining,[3]; 60 min,69.56
same,Microsomal stability,[3]; 60 min,4.24
same,half-life,"[3]; human, liver microsomes, read-out: t1/2 microsomes",1.83 h
same,inhibition,CYP 2D6,80.7%
same,IC50,[4],< 111 µM
same,"Papp A→B at 30 min, 10 μM",MDR-1; apical to basolateral,3.2 ×10⁻⁶ cm/s
same,"Papp B→A at 30 min, 10 μM",MDR-1; basolateral to apical,38 ×10⁻⁶ cm/s
same,Papp A-B,[5],"3.2 cm/sec, x10-6"
same,"Papp A→B at 30 min, 10 μM",[6],2 to 20 ×10⁻⁶ cm/s
same,inhibition,CYP 1A2,36.7%
same,efflux ratio,P-glycoprotein,11.9
same,inhibition,CYP 3A4,80%
same,IC50,"[7]; RAW264.7, value in square brackets",348 µM
same,IC50,[7]; murine macrophage cell line RAW264.7,121 µg/mL
"NNC(=O)c1ccncc1 [Isoniazid, reference compound]",MIC,"M. tuberculosis H37Rv; 336 h, 2 weeks at 37°C",0.1 µg/mL
same,MIC,M. tuberculosis H37Rv; value in square brackets,0.73 µM
same,GIC50 RAW264.7,[8],3000^a mg/L
same,MIC,M. bovis BCG Pasteur; [9],0.1 µg/mL
same,MIC,M. bovis BCG Pasteur; [10],0.73 µM
same,IC50,[4],> 1000 µM
same,Mtb-MurE inhibitory effect,"[4]; negative control, any of the concentrations examined",no inhibitory effect
"N[C@@H]1CON=C1O [D-cycloserine, reference compound]",MIC,M. bovis BCG Pasteur; [9],25 µg/mL
same,cell length,M. bovis BCG,4.2 ± 1.0 μm

# From publication PMC4498294, “Tetrahydroisoquinolines affect the whole-cell phenotype of Mycobacterium tuberculosis by inhibiting the ATP-dependent MurE ligase” (Journal of Antimicrobial Chemotherapy, 2015)
